Values after ≈ are worked out from the molar mass of the structure shown. Read-outs that look alike come from different tables or passages of the source.
Legend:
[1] = system: RSV^ts-NRK cells; assay: Activity to induce changes in cell morphology, RSV^ts-NRK cells; type: cell-based, rat; details: 0.3 μg/ml, 2 days
Description: (§1) Normal rat kidney cell, NRK-49 (Dainihon Pharmaceutical K.K.) and normal mouse cell, NIH 3T3 (JCRB Cell Bank); and K-ras NIH 3T3, H-ras NIH 3T3, and N-ras NIH 3T3 (Tokyo University, Medical Science Institute, Japan) which are cell lines that have been transformed with Kirsten sarcoma virus, Harvey sarcoma virus, and neuroblastoma virus, respectively, were incubated at 37° C. in the similar manner.
(§2) The effect of the III-121C on various types of cultured cells was evaluated by inoculating each type of cells in wells of 24 wells plastic plate (Costar 3524, manufactured by Costar) at 3×10^4 cells/1 ml medium/well; incubating the plate in an incubator of 5% CO2 for one day; and adding the III-121C sample to the cell cultures to observe the cell morphology for another two days.
RSV^ts -NRK is a cell line that had been transformed with an src oncogene, and is temperature sensitive as in the case of K-ras^ts -NRK.

[2] = system: N-ras-NIH 3T3 cells; assay: Activity to induce changes in cell morphology, N-ras-NIH 3T3 cells; type: cell-based, mouse; details: 0.3 μg/ml, 2 days
Description: as §1, §2
K-ras-NIH 3T3 and H-ras-NIH 3T3 are transformed cell lines, and the cells are elongated with projections or processes on their surface, and grow atop the other. N-ras-NIH 3T3 cells are also elongated and their projections or processes are even longer.

[3] = system: K-ras^ts-NRK cells; assay: Activity to induce changes in cell morphology, K-ras^ts-NRK cells; type: cell-based, rat; details: 2 days
Description: as §1, §2

[4] = system: K-ras-NRK cells; assay: Action mechanism: flow-cytometric DNA content analysis of K-ras-NRK cells; type: cell-based, rat; details: 24 hours; III-121C 0.3 and 1 μg/ml, vinblastine 0.1 μg/ml (FIG. 11)
Description: FIGS. 11(a) to (d) are graphs showing the results of flow-cytometric analysis wherein the number of cells is depicted in relation to their DNA content, upon addition of no reagent (FIG. 11(a)), 0.3 μg/ml of III-121C (FIG. 11(b)), 1 μg/ml of III-121C (FIG. 11(c)), and 0.1 μg/ml of vinblastine (FIG. 11(d)) to the K-ras NRK cell culture.
To the cells of K-ras-NRK in their propagation was added either one of III-121C and vinblastine. No reagent was added to the control cells. After 24 hours from the addition, the cells were fractionated with a cell sorter to examine the DNA quantity in relation to the number of the cells.

[5] = system: cancer cell; assay: 50% inhibition of cancer cell propagation, various cell lines; type: cell-based; details: varies by type of cancer cell; approximately; Table 1; read-out: concentration (IC50) required for 50% inhibition of the cancer cell propagation
Description: (§3) Next, cells of different types were inoculated in wells of 12 wells plastic plate (Costar 3521, manufactured by Costar) at 2.0×10^4 /DMEM 1 ml/well, and the plate was incubated in an incubator of 5% CO2 for one day. III-121C was added to the thus incubated cells to different concentrations and incubation was continued for another 3 days. The number of cells was measured by repeating the above-described procedure to determine the concentration (IC50) of the III-121C required to inhibit the cell propagation to 50%.

[6] = system: K-ras-NRK cells; assay: Effect on production of actin filaments, K-ras-NRK cells; type: cell-based, rat; details: 1 μg/ml, one day
Description: A cover glass with a diameter of 18 mm (manufactured by Matsunami Glass Industry K.K.) that had been washed with 100% ethanol, dried, and sterilized was placed in wells of 12 wells plastic plate, and the cells were inoculated in the wells at 3.0×10^4 /DMEM 1 ml/well. The plate was incubated in an incubator of 5% CO2 for 1 day. To the thus incubated cell culture was added 1 μg/ml of III-121C, and the incubation was continued for another one day. The cell culture was then fixed with paraformaldehyde. The fixed cell culture was reacted with rhodamine pharoidine reagent (Molecular Probe Inc.) to examine the cell morphology by fluorescence microscope with G filter (excitation, 546 nm).

[7] = system: K-ras^ts NRK cells; assay: Propagation inhibitory effect on K-ras^ts NRK cells; type: cell-based, rat; details: for IC50: Rattus norvegicus, NRK, 72 h, K-ras^ts NRK, 3 days, read-out: IC50, cell propagation
Description: as §1
Cells of K-ras^ts -NRK were inoculated in wells of 24 wells plastic plate (Costar 3524, manufactured by Costar) at 1.0×10^4 /DMEM 1 ml/well, and the plate was incubated in an incubator of 5% CO2 at 33° C. for one day. III-121C was added to the thus incubated cells to different concentrations and the incubation was continued. After predetermined periods, the medium was removed of the cell culture, and cells were peeled off the wall of the well by using trypsin. DMEM was added to the well to uniformly suspend the cells, and the cell concentration in the suspension was measured with Coulter counter (ZM type manufactured by Coulter Electronics) to obtain the results shown in FIG. 7.
as §3

[8] = system: H-ras-NIH 3T3 cells; assay: Propagation inhibitory effect on H-ras-NIH 3T3 cells; type: cell-based; details: Mus musculus, NIH3T3, 72 h; H-ras-NIH 3T3, 3 days; read-out: IC50, cell propagation
Description: as §1, §3

[9] = system: N-ras-NIH 3T3 cells; assay: Propagation inhibitory effect on N-ras-NIH 3T3 cells; type: cell-based; details: Mus musculus, NIH3T3, 72 h; N-ras-NIH 3T3, 3 days; read-out: IC50, cell propagation
Description: as §1, §3

[10] = system: K-ras-NRK cells; assay: Activity to induce changes in cell morphology, K-ras-NRK cells; type: cell-based, rat; details: 0.3 μg/ml, 2 days
Description: as §2
K-ras-NRK is a transformed cell line, and the cells appear round with its central portion raised.

[11] = system: NRK cells; assay: Propagation inhibitory effect on NRK cells; type: cell-based; details: Rattus norvegicus, 72 h, 3 days, read-out: IC50, cell propagation
Description: as §1, §3

CCC12CC(C(=O)OC)=C3Nc4cc5c(cc4C34CCN(CC3OC31)C42)C1C(O5)C(O)C2(CC)CC(C(=O)OC)=C3Nc4c(cc(O)c(OC)c4OC)C34CCN1C42 (stereo not shown) [III-121C]
change in cell morphology ([1]; 33° C.): changed their cell morphology to have a rounded appearance similar to the morphology of the normal NRK-49 cells
change in cell morphology ([1]; 39° C.): changed their cell morphology to have a rounded appearance similar to the morphology of the normal NRK-49 cells
change in cell morphology and growth habits [2]: the cells changed their morphology and growth habits to those of normal NIH 3T3 cells, and became flat with an increased area of contact
change in cell morphology and growth habits ([3]; 33° C., 0.3 μg/ml): the cells changed their morphology and growth habits to those of normal cells
change in cell morphology and growth habits ([3]; 39° C.): the cell morphology and growth habits were the same as the K-ras^ts -NRK cells that had been incubated in the absence of III-121C
cell cycle / cell division inhibition [4]: Absence of the cell division inhibitory activity
distribution of DNA quantity in cells [4]: distribution of the DNA quantity in the cells was identical with that of the control cells
IC50 [5]: 0.1 to 0.5 µg/mL (≈ 0.126 to 0.629 µM)
actin filaments / cell morphology [6]: morphology of normal cells with longitudinally extending linear actin filaments
cell propagation inhibition (cell growth curve, FIG. 7) ([7]; K-ras^ts-NRK, 33° C., different concentrations): inhibited the cell propagation in concentration dependent manner
IC50 ([7]; 33° C.): 0.29 µg/mL (≈ 0.365 µM)
IC50 ([7]; 39° C.): 0.2 µg/mL (≈ 0.252 µM)
IC50 [8]: 0.48 µg/mL (≈ 0.604 µM)
IC50 [9]: 0.12 µg/mL (≈ 0.151 µM)
change in cell morphology and growth habits [10]: the cells changed their morphology and growth habits to those of normal cells, and became flat with an increased area of contact
IC50 [11]: 0.19 µg/mL (≈ 0.239 µM)

From patent publication US5559115A, “Oncogene function-inhibitory agent, method for inhibiting oncogene function, and treatment of cancer” (Terumo Kabushiki Kaisha, priority 1993, dated 1996)
